From patent US9045470B2, “Compounds and compositions as TLR activity modulators” (IRM LLC, priority 2009, dated 2015)

How the values were obtained:
[1] = Desorption from aluminum hydroxide with KH2PO4 and n-butanol extraction, HPLC; type: physicochemical
Method: An organic solvent extraction method was used to evaluate whether compound 1 was covalently bound to aluminum hydroxide. The formulation was prepared as follows: 2 mg/ml aluminum hydroxide, 100 μg/dose compound 1, 10 mM histidine buffer) and the pH was adjusted to 9. A control formulation without aluminum hydroxide was also prepared.
One ml of the formulation containing Alum was mixed with 1 ml of KH2PO4 1M pH 9 (0.5M final conc, pH 9) and was left in gentle agitation overnight at 37° C. to allow desorption of compound 1 (compound 5) from the aluminum hydroxide via ligand exchange with the phosphate anions. Organic extraction was then performed: 1 ml of each sample was mixed with 1 ml of n-butanol and vortexed. After the formation of 2 phases, the upper phase (butanol) was recovered, dried with N2 and resuspended in MeOH/10 mM NaOH. HPLC analysis was run both for the formulation supernatants and for the butanol extracted samples (C18 column; 0-100% B in 2 min; A=0.1% TFA in H2O; B=0.1% TFA in ACN).
The adsorption of compound 16 and compound 18 to aluminum hydroxide was also evaluated using the alum formulation described above for compound 1. […] In addition, SDS PAGE analysis of antigen binding in the presence of compound 16 or compound 18 was carried out as described above.

human TLR7 = target: T1, human TLR7 (Homo sapiens, UniProt Q9NYK1); assay: Reporter gene assay: HEK293 cells stably transfected with human TLR7 and NF-kB-driven luciferase reporter; type: cell-based
T1 construct: expressed in transfected cells; host or cells: HEK 293 (human embryonic kidney 293), stably transfected; co-transfected pNifty-Luciferase reporter
T1 sequence (Q9NYK1 27-1049): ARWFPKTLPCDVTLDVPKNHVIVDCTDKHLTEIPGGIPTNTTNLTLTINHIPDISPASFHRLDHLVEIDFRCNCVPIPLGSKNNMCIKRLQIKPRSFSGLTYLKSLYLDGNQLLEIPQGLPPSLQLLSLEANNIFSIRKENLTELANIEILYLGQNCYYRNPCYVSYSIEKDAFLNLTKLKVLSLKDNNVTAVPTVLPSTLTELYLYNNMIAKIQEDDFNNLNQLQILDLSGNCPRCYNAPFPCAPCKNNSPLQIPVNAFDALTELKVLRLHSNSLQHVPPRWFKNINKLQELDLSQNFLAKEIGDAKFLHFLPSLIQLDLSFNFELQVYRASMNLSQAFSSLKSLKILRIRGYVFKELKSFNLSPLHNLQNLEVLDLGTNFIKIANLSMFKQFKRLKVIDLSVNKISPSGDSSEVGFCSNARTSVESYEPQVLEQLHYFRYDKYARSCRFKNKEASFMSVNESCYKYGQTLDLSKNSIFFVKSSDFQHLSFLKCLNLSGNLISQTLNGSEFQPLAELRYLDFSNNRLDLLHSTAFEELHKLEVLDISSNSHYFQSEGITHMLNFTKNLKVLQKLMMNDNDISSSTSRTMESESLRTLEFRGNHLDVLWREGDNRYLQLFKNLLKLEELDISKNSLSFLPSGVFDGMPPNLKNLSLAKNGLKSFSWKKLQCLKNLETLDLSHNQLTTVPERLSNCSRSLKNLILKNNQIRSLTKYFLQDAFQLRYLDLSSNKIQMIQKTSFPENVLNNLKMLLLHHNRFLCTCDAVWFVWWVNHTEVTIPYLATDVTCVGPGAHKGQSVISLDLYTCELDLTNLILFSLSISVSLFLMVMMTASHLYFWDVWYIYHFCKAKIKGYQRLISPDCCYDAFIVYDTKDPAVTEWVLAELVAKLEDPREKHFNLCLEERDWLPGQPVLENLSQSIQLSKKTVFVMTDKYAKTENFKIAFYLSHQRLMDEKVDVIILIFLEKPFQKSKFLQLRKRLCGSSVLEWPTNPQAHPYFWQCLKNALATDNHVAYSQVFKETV
Method: Human embryonic kidney 293 (HEK 293) cells were stably transfected with human TLR7 and an NF-kB-driven luciferase reporter vector (pNifty-Luciferase). As a control assay, normal Hek293 transfected with pNifty-Luc were used. Cells were cultured in DMEM supplemented with 2 mM L-glutamine, 10% heart inactivated FBS, 1% penicillin and streptomycin, 2 μg/ml puromycin (InvivoGen #ant-pr-5) and 5 μg/ml of blasticidin (Invitrogen #46-1120). Bright-Glo™ Luciferase assay buffer and substrate were supplied by Promega #E263B and #E264B (assay substrate and buffer respectively). 384 well clear-bottom plates were supplied by Greiner bio-one (#789163-G) and were custom bar-coded plates.
Cells were plated at 25,000 cells/well in 384-well plates in a final volume of 50 μl of media. Cells were allowed to adhere to the plates after overnight (18 hours) culture at 37° C. and 5% CO2. Serially diluted experimental and positive control compounds were then dispensed to each well and incubated for 7 hours at 37° C. and 5% CO2. Cells stimulated with DMSO alone also serve as negative controls. After the incubation, 30 μl of the pre-mix assay buffer and substrate buffer were added to each well according to manufacturer's instructions.
The EC50 value in those experiments is given as that concentration of the test compound in question that provoke a response halfway between the baseline and maximum responses. […] Such EC50 values are obtained relative to the activity of resiquimod set to 100%.

[2] = Binding to aluminum hydroxide adjuvant, HPLC of formulation supernatant; type: physicochemical; details: aluminum hydroxide 2 mg/mL, room temperature and 37° C., 1, 5 and 24 hours
Method: The binding of the compounds of Formula (I) provided herein to aluminum-containing adjuvants at pH 9 and pH 6.5 was evaluated using HPLC to monitor the presence of the compound of Formula (I) in the supernatant.
(§1) Compound 1 (0.5 mg/mL) was dissolved in 10 mM NaOH and added to aluminum hydroxide adjuvant (2 mg/mL) resulting in a 100 μg/dose formulation. The supernatant was evaluated with HPLC using a ballistic gradient (from 10% CH3CN-0.1% TFA to 100% CH3CN-0.1% TFA in 2.5 minutes) on a C18 ([…]×4.6 mm) ACE column at 45° C. To evaluate the effect of supernatant temperature and incubation time on binding, the supernatant was evaluated at a supernatant temperature of room temperature and at 37° C. after 1 hour, 5 hours and 24 hours. A control without aluminum hydroxide was also evaluated.
as §1, with “5 (1” for “1 (0.5”
as §1, with “formulation. The pH of the solution was adjusted to pH 6.5 using HCl.” for “formulation.”
as §1, with “5 (1” for “1 (0.5”, “histidine buffer (1 mg/mL)” for “NaOH”

[3] = Binding to alum in 10 mM histidine buffer, LC-MS/MS of supernatant; type: physicochemical; details: 10 mM histidine buffer pH 6.8; final compound 0.1 mg/mL; 37° C. for 5 hours; 100% minus % unbound
Method: The resulting solution was diluted 10-fold with blank histidine buffer to a final compound concentration of 0.1 mg/mL. Diluted solutions were incubated at 37° C. for 5 hours. The samples were centrifuged at 14,000 rpm for 10 minutes to pellet the insoluble. The supernatant (along with an internal standard) was then evaluated by LC-MS/MS using a ballistic gradient (from 5% CH3CN-0.5% formic acid to 95% CH3CN-1.0% formic acid in 3.5 minutes) on a Waters Atlantis dC18 (50 mm×2.1 mm) column at room temperature against a calibration curve prepared at known compound concentrations ranging from 0.005 to 50 μM. The concentration in the supernatant was calculated as % unbound to alum compared to control; the % bound to alum was calculated as 100% minus % unbound.

SMILES: Cc1ccc2c(c1)nc(N)c1ncc(CCc3ccc(OCCCP(=O)(O)O)cc3C)cc12 [Compound 1, 3-(4-(2-(5-amino-8-methylbenzo[f][1,7]naphthyridin-2-yl)ethyl)-3-methylphenoxy)propylphosphonic acid]
- quantity of compound in supernatant of formulation treated with KH2PO4 (desorption by phosphate anions) ([1]; 0.5M KH2PO4 pH 9, overnight 37° C.): Increased quantities
- Concentration (mg/ml), phosphate/extract ([1]; alum formulation treated with 0.5M KH2PO4, n-butanol extracted sample): 0.119 ± 0.001 mg/mL
- Concentration (mg/ml), phosphate supernatent ([1]; alum formulation treated with 0.5M KH2PO4 pH 9 overnight at 37° C., supernatant): 0.059 ± 0.001 mg/mL
- Concentration (mg/ml), extaract ([1]; alum formulation, n-butanol extracted sample): 0.027 ± 0.001 mg/mL
- Concentration (mg/ml), control/extract ([1]; control formulation without aluminum hydroxide, n-butanol extracted sample): 0.217 ± 0.001 mg/mL
- Concentration (mg/ml), supernatant control ([1]; control formulation without aluminum hydroxide, supernatant): 0.329 ± 0.001 mg/mL
- Concentration (mg/ml), supernatent ([1]; formulation with 2 mg/ml aluminum hydroxide, 10 mM histidine buffer pH 9, supernatant): 0.005 ± 0.001 mg/mL
- EC50 (human TLR7): 226 nM
- presence of compound in supernatant when aluminum hydroxide included in formulation (HPLC) ([2]; pH 6.5 (adjusted with HCl)): not present in the supernatant
- presence of compound in supernatant when aluminum hydroxide included in formulation (HPLC) ([2]; pH 9, dissolved in 10 mM NaOH): not present in the supernatant

SMILES: Cc1ccc2c(c1)nc(N)c1ncc(CCc3ccc(OCCCC(F)(F)P(=O)(O)O)cc3C)cc12 [Compound 5, 4-(4-(2-(5-amino-8-methylbenzo[f][1,7]naphthyridin-2-yl)ethyl)-3-methylphenoxy)-1,1-difluorobutylphosphonic acid]
- EC50 (human TLR7): 308 nM
- presence of compound in supernatant when aluminum hydroxide included in formulation (HPLC) ([2]; pH 6.7, 10 mM histidine buffer): not present in the supernatant
- presence of compound in supernatant when aluminum hydroxide included in formulation (HPLC) ([2]; pH 9, dissolved in 10 mM NaOH): not present in the supernatant

SMILES: Cc1cc(OCCCC(F)(F)P(=O)(O)O)ccc1CCc1cnc2c(N)nc3cc(CCC(=O)O)ccc3c2c1 [Compound 16, 3-(5-amino-2-(4-(4,4-difluoro-4-phosphonobutoxy)-2-methylphenethyl)benzo[f][1,7]naphthyridin-8-yl)propanoic acid]
- % Alum bound in Histidine buffer [3]: 94.5%
- compound in supernatant after addition of aluminum hydroxide (HPLC) ([1]; alum formulation as described for compound 1): no compound was observed in the supernatant
- EC50 (human TLR7): 137 nM

SMILES: Cc1cc(OCCOCCOCCP(=O)(O)O)ccc1CCc1cnc2c(N)nc3cc(CCC(=O)O)ccc3c2c1 [Compound 20, 3-(5-amino-2-(2-methyl-4-(2-(2-(2-phosphonoethoxy)ethoxy)ethoxy)phenethyl)benzo[f][1,7]naphthyridin-8-yl)propanoic acid]
- % Alum bound in Histidine buffer [3]: 97.0%
- EC50 (human TLR7): 384 nM
